Assay results from the supplement of paper PMC10307832.

The cell lines below were run with CN(C)C(=N)NC(=N)N [Metformin] + Cc1nc(NC(=O)N2CCC[C@H]2C(N)=O)sc1-c1ccnc(C(C)(C)C(F)(F)F)c1 [Alpelisib] (partner 2 µM) (assay: relative viability (nuclei count vs DMSO), 5 days (fraction); higher = more cells survive). Conditions: first compound 10 µM.
Outline: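 Lung cancer cell lines, seeded in 1536-well plates, were treated the following day by pin tool with a single drug or with five library-drug doses (not always all listed) in √10 steps on top of a fixed anchor-drug dose. Cells were fixed and nuclei stained in one step after 5 days, and nuclei were counted. Relative viability is the nuclei count for treated wells divided by that for vehicle wells, reported as medians of duplicate plates.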

Cell Line	relative viability
A549	0.766
A-427	1.07
BEN	1.16
COR-L23	0.633
COR-L 105	1.14
Calu-6	0.889
EBC-1	0.866
EKVX	0.656
EMC-BAC-2	0.612
EPLC-272H	1.15
H3255	0.697
HARA	0.915
HCC-15	0.921
HCC-44	0.782
HCC-78	0.408
HCC-366	0.43
HOP-62	0.828
LCLC-97TM1	0.285
LCLC-103H	1.05
LK-2	1.56
LOU-NH91	0.762
LU99A	0.404
LXF-289	0.909
NCI-H23	0.825
NCI-H1299	0.991
NCI-H1563	1.06
NCI-H1703	0.491
NCI-H2170	0.748

Same assay, conditions: first compound 31.62 µM

Cell Line	relative viability
201T	0.987
A549	0.879
A-427	1.14
ABC-1	1.08
BEN	1.47
CAL-12T	1.21
COR-L23	0.721
COR-L 105	1.33
Calu-6	0.84
EBC-1	0.989
EKVX	0.934
EMC-BAC-2	0.704
EPLC-272H	1.04
H3255	0.783
HARA	0.902
HCC-15	1.07
HCC-44	0.825

Cell Line	relative viability
HCC-78	0.537
HCC-366	0.545
HCC-827	0.822
HOP-62	0.77
IA-LM	1.11
LC-2-ad	0.812
LCLC-97TM1	0.284
LCLC-103H	1
LK-2	1.53
LOU-NH91	0.709
LU99A	0.4
LXF-289	0.97
NCI-H23	0.941
NCI-H1299	0.998
NCI-H1563	0.914
NCI-H1703	0.728
NCI-H2170	0.792

Same assay, conditions: first compound 100 µM

Cell Line	relative viability
201T	0.989
A549	0.739
A-427	1.02
ABC-1	0.999
BEN	1.43
CAL-12T	1.08
COR-L23	0.72
COR-L 105	1.07
Calu-6	0.836
EBC-1	0.925
EKVX	0.88
EMC-BAC-2	0.675
EPLC-272H	1.1
H3255	0.712
HARA	1.06
HCC-15	1.03
HCC-44	0.931

Cell Line	relative viability
HCC-78	0.57
HCC-366	0.472
HCC-827	0.896
HOP-62	0.777
IA-LM	0.906
LC-2-ad	0.671
LCLC-97TM1	0.339
LCLC-103H	1.14
LK-2	1.63
LOU-NH91	0.806
LU99A	0.379
LXF-289	0.963
NCI-H23	0.696
NCI-H1299	1.05
NCI-H1563	1.06
NCI-H1703	0.474
NCI-H2170	0.819

Same assay, conditions: first compound 316.23 µM

Cell Line	relative viability
201T	0.955
A549	0.672
A-427	1.05
ABC-1	0.745
BEN	1.03
CAL-12T	0.812
COR-L23	0.564
COR-L 105	0.963
Calu-6	0.73
EBC-1	0.941
EKVX	0.812
EMC-BAC-2	0.639
EPLC-272H	1.04
H3255	0.339
HARA	0.89
HCC-15	0.659
HCC-44	0.711

Cell Line	relative viability
HCC-78	0.469
HCC-366	0.452
HCC-827	0.837
HOP-62	0.928
IA-LM	0.882
LC-2-ad	0.69
LCLC-97TM1	0.252
LCLC-103H	1.03
LK-2	1.36
LOU-NH91	0.634
LU99A	0.382
LXF-289	0.943
NCI-H23	0.715
NCI-H1299	0.994
NCI-H1563	0.827
NCI-H1703	0.512
NCI-H2170	0.806

Same assay, conditions: first compound 1000 µM

Cell Line	relative viability
201T	0.985
A549	0.611
A-427	1.03
ABC-1	0.349
BEN	1.24
CAL-12T	0.907
COR-L23	0.7
COR-L 105	0.802
Calu-6	0.879
EBC-1	0.947
EKVX	0.835
EMC-BAC-2	0.674
EPLC-272H	1.13
H3255	0.486
HARA	0.964
HCC-15	0.919
HCC-44	0.813
HCC-78	0.598
HCC-366	0.535
HCC-827	0.782
HOP-62	0.934
IA-LM	0.88
LC-2-ad	0.651
LCLC-97TM1	0.346
LCLC-103H	1
LK-2	1.32
LOU-NH91	0.642
LU99A	0.44
LXF-289	1.01
NCI-H23	0.901
